Measurements: patent publication US20260374739A1, “SMALL MOLECULAR WEIGHT CHEMICAL COMPOUND TO ANTAGONIZE EPH-EPHRIN TETRAMERIZATION AND INHIBIT BIDIRECTIONAL SIGNALING” (THE BOARD OF REGENTS OF THE UNIVERSITY OF TEXAS SYSTEM, priority 2022, published 2026)

Test system: CFA-induced mechanical pain in mice
Assay: CFA inflammatory pain, mechanical
Assay type: in vivo, mouse
Details: IP or PO 20 mg/kg
Method: The week prior to injection of CFA, adult mice (>10 weeks age, male or female) were first acclimated to the chambers used in pain assessments and then their left and right hind paws were subjected to thermal (heat) and mechanical (touch) pain measurements to obtain baseline data. Mechanical pain was assessed by placing mice on a wire grid and repeatably testing hind paws for their sensitivity to von Frey (VF) filaments of different stiffnesses with the mechanical withdrawal threshold for each mouse hind paw defined as the minimum gauge filament needed to elicit a reflex. Thermal pain was assessed by placing mice on a glass surface and subjecting their hind paws to an infrared heat source (Hargreaves device) that is connected to a timer to measure how long the animal takes to notice the heat and lift the paw. In these tests, both hind paws of mice were subjected to multiple measurements over a 2-3 hr period to (1) either narrow down the VF filament stiffness threshold to plot the touch pain or (2) to obtain six good thermal response measurements which are averaged to provide the data points for heat pain. […] A total of 12 mice were assessed in any one experiment. […]

Oc1c(Br)cc(CN2CCOCC2)c2cccnc12 [Compound 5, 7-bromo-5-(morpholinomethyl)quinolin-8-ol]
mechanical pain: no increased sensitivity to the VF filaments on average
mechanical pain ratio (vehicle 2-3): 1
